pIC50: −log10 of the molar value.
Experiments:
Format in all cases: functional, cell-based
K562 = assay: Cytotoxicity against human K-562 cells after 72 hrs by MTT assay; settings: K562, 72 h
[1] = Cytotoxicity against human SKW3 cells after 72 hrs by MTT assay; settings: SKW3, 72 h
LAMA-84 = assay: Cytotoxicity against human LAMA-84 cells after 72 hrs by MTT assay; settings: LAMA-84, 72 h

Question: With COc1cc([C@@H]2c3cc4c(cc3[C@@H](O[C@@H]3O[C@@H]5CO[C@@H](C)O[C@H]5[C@H](O)[C@H]3O)[C@H]3COC(=O)[C@H]23)OCO4)cc(OC)c1O [ETOPOSIDE] as the molecule, how does the pIC50 (K562) read?
Answer: 5.73

Question: And the pIC50 [1]?
Answer: 6.09

Question: And the pIC50 (LAMA-84)?
Answer: 6.10

Source: ChEMBL document CHEMBL1142600, “Production of justicidin B, a cytotoxic arylnaphthalene lignan from genetically transformed root cultures of Linum leonii” (J Nat Prod, 2006)
